Source: ChEMBL document CHEMBL5550140, “Emerging ferroptosis inhibitors as a novel therapeutic strategy for the treatment of neonatal hypoxic-ischemic encephalopathy” (2024)

System: Mus musculus
Assay: Neuroprotective activity against hypoxia-ischemia brain injured mouse model assessed as reduction in infarct volume at 20 mg/kg, ip measured after 72 hrs by immuno-histochemistry based staining analysis relative to control
Format: functional
Parameters: scale not given: the % may be the effect or the level left

Q: With `Oc1cccnc1NC(c1ccc(Cl)cc1)c1ccc2cccnc2c1O` (stereo unspecified) as the molecule, how does the Activity read?
A: 26.3%
